Measurements taken from PubChem BioAssay AID1963841 (Molecular Pharmacology Branch, DTP, NCI, 2024).
Values joined by “and” are separate entries in the source; they are usually repeats but may differ in a detail not shown here. Equal values may be shown once.

Tested on: 439559-082-T-J2-PDC spheroid viability
Assay: Anticancer human tumor 439559-082-T-J2-PDC patient-derived colon adenocarcinoma cell line growth inhibition [POLQ]
Settings: spheroids with HUVEC and MSC; for viability, T/C: stronger effect = lower value
Procedure, shortened: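 PDC + HUVEC + MSC complex spheroids; POLQ inhibitors ± partner drugs; top conc. at/near clinical Cmax, else 10 microM (SN-38 1 microM), half-log dilutions; 37 degrees C, 5% CO2.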
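Further: spheroids exposed to compounds for seven days before readout.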
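Wherever viability, T/C is given: 100% = DMSO vehicle control viability.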

Compound	viability, T/C (compound 3.16 µM)	IC50 (curve of compound)	viability, T/C (compound 0.0316 µM)	viability, T/C (compound 0.1 µM)	viability, T/C (compound 0.316 µM)	viability, T/C (compound 1 µM)	viability, T/C (compound 10 µM)	IC50 (compound alone, run of 11/27/2023)	IC50 (compound alone, run of 12/05/2023)
CC(C)n1c(=O)n(C)c2cnc3cc(F)c(-c4ccc(OCCCN5CCCCC5)nc4)cc3c21	116% and 127% and 102%	> 10 µM							
CCc1cc2c(N3CCc4c(cc(Cn5ccnc5)cc4-c4cn(C)nc4C(F)(F)F)C3=O)ccnc2c(OC)n1	107% and 95% and 90.8%	> 10 µM	96.6% and 87.7% and 94.8%	100% and 94.5% and 93.2%	102% and 101% and 87.4%	101% and 95% and 96%	94.8% and 89.2% and 94.2%		
CCc1cc2c(N3CCc4c(cc(Cn5ccnc5)cc4-c4cn(C)nc4C(F)(F)F)C3=O)cc(C)nc2c(OC)n1	99.1% and 101% and 92.2%	> 10 µM	105% and 93.7% and 95.3%	94.8% and 96.5% and 90.4%	94.4% and 95.2% and 87.4%	103% and 91.7% and 94.3%	94.1% and 90.4% and 87.9%		
Nc1ccn(C2OC(CO)C(O)C2(F)F)c(=O)n1 (stereo unspecified)	36.5% and 35.1% and 30.8%	0.767 µM and 0.656 µM and 0.496 µM	84.5% and 77.1% and 81%	68.2% and 74.4% and 72%	58.2% and 59% and 56.6%	49.8% and 43.5% and 39.9%	31.1% and 26.7% and 27.3%		
Cc1cccc(N(C)C(=O)C2C(O)CCN2c2nc(C)cc(C(F)(F)F)c2C#N)c1 (stereo unspecified)	97% [middle of 12 runs]		98.9% [middle of 12 runs]	95.7% [middle of 12 runs]	97.4% [middle of 12 runs]	98.2% [middle of 12 runs]	101% [middle of 12 runs]	> 10 µM	> 10 µM
COc1cc(C2c3cc4c(cc3C(OC3OC5COC(C)OC5C(O)C3O)C3COC(=O)C23)OCO4)cc(OC)c1O (stereo unspecified)	82.1% and 81.8% and 89.5%	> 10 µM	92.4% and 99.3% and 94.1%	95.6% and 95.3% and 97.8%	92.7% and 82% and 98.2%	90.5% and 88.4% and 95.4%	73.7% and 72.7% and 70.3%		
COc1cccc2c1C(=O)c1c(O)c3c(c(O)c1C2=O)CC(O)(C(=O)CO)CC3OC1CC(N)C(O)C(C)O1 (stereo unspecified)	65% and 58.3% and 60.4%	> 10 µM and 9.81 µM	94.9% and 90.3% and 99.1%	86.6% and 79.9% and 96.6%	79.8% and 66.8% and 88%	72.6% and 63.7% and 70.9%	52.5% and 69.4% and 49.1%		
COc1cc2cc(C(=O)CCC(=O)O)sc2cc1OC	95.2% and 91.9% and 97%	> 10 µM	109% and 97.5% and 94.4%	93.8% and 82% and 103%	89.1% and 98.4% and 98.9%	95.2% and 100% and 99.7%	87.7% and 100% (2×)		
O=c1[nH]cc(F)c(=O)[nH]1	71.1% and 87% and 72.8%	> 10 µM	94.6% and 117% and 96.9%	95% and 114% and 94.2%	83.6% and 86.3% and 81%	76.2% and 90.7% and 73%	68.4% and 78.9% and 71.5%		
C#Cc1c(F)ccc2cc(O)cc(-c3ncc4c(N5CC6CCC(C5)N6)nc(OCC56CCCN5CC(F)C6)nc4c3F)c12 (stereo unspecified)	59.8% and 69.2% and 61.3%	> 10 µM	98.3% and 86.1% and 91.5%	87.7% and 85.2% and 81.3%	72.3% and 64.9% and 72.9%	66.5% and 68.4% and 70.6%	53% and 67.8% and 51%		
